# Experimental data taken from patent US12295936B2, “Immunomodulating urea azalides” (Zoetis Services LLC, priority 2020, dated 2025).
# Where two headings read alike, the source gives them in different places.
# Legend:
# TLR4 = test: Surface plasmon resonance (SPR) drug/target affinity; assay type: binding
# Text: In order to add further clarity to binding partner identification, surface plasma resonance (SPR) technology was used. […] These targets were unique to this drug class compared to gamithromycin, a macrolide antibiotic used in the treatment of BRD. Both targets fit the paradigm that the immunological mechanism of action is linked to the pathways that are both of key importance as being dysregulated in BRD and modulated by M9. LCN2 is expressed by neutrophils upon activation of toll-like receptors (TLRs) and is a component of the innate inflammatory response. […] Very little information exists to date on SLAMF9. It is a member of a family of signal adaptor proteins that is thought to lack signal transduction capabilities.
# KD is the equilibrium dissociation constant that was used to present the drug/target affinity. The identified targets associated with drug were measured by surface plasmon resonance (SPR) to define the KD.
# TNF-α = test: LPS-stimulated whole bovine blood assay, MSD cytokine detection; assay type: cell-based; details: Bos taurus
# E. coli = test: In-vitro MIC model (CLSI broth micro-dilution); details: Escherichia coli, ATCC25922, read-out: Comparative MIC's, E. coli ATCC 25922
# [1] = test system: M. haemolytica (OSU-012103-BHI); test: In vivo bovine M. haemolytica intratracheal lung infection challenge model; details: for Mortality/Euthanization Yes, % / Mortality/Euthanization Yes, Number / Mortality/Euthanization No, % / Mortality/Euthanization No, Number: positive control; for Mortality/Euthanization No, % / Mortality/Euthanization No, Number: surviving animals; for Significance to T01, mortality: p≤0.2
# IL-6 = test: LPS-stimulated whole bovine blood assay, MSD cytokine detection; assay type: cell-based; details: Bos taurus, LPS-stimulated bovine whole blood; read-out: IL-6 (IC50 μM)
# Text: In order to correlate RNA sequencing data to cytokine changes the whole blood assay was utilized. […] The enhancement result represents an overall stimulation of cytokine levels due to cellular stress or potential toxicity with increasing concentrations of the compound, representing a typical bell shape response curve for immunomodulatory activity.
# [2] = Plasma pharmacokinetics in cattle; details: following a 10 mg/kg dose, separate PK study
# Procedure: The primary clinical endpoint for efficacy was treatment failure/success over a 14-day observation period. Clinically normal beef calves (150-200 kg) at moderate risk for BRD were dosed on arrival to the feedlot. Animals (N=114/group) received saline (T01), 5 mg/kg M9 (T02), 10 mg/kg M9 (T03) or Zactran (T04).
# [3] = test system: bovine respiratory disease (BRD); test: Natural bovine respiratory disease (field) studies; assay type: in vivo, cattle; details: 14-day observation, beef calves at moderate risk for BRD, saline 43%
# [4] = Table 7 study, T04: 10 mg/kg subcutaneous
# [5] = Table 9 study, T05: 10 mg/kg subcutaneous
smiles,measurement,setting,value
"CCCNC[C@]1(O)[C@H](C)O[C@@H](O[C@H]2[C@H](C)[C@@H](O[C@@H]3O[C@H](C)C[C@H](NC)[C@H]3O)[C@](C)(O)C[C@@H](C)CN[C@H](C)[C@@H](O)[C@](C)(O)[C@@H](CC)OC(=O)[C@@H]2C)C[C@@]1(C)OC [Example M9, (2R,3S,4R,5R,8R,10R,11R,12S,13S,14R)-2-ethyl-3,4,10-trihydroxy-13-(((2R,4R,5S,6S)-5-hydroxy-4-methoxy-4,6-dimethyl-5-((propylamino)methyl)-tetrahydro-2H-pyran-2-yl)oxy)-11-(((2S,3R,4S,6R)-3-hydroxy-6-methyl-4-(methylamino)tetrahydro-2H-pyran-2-yl)oxy)-3,5,8,10,12,14-hexamethyl-1-oxa-6-azacyclopentadecan-15-one, reference compound]",Interaction KD (M),TLR4,Indirect
same,IC50,"TNF-α; LPS-stimulated bovine whole blood, read-out: TNF-α (IC50 μM)",250 µM
same,IC50,"TNF-α; LPS-stimulated whole bovine blood, read-out: TNF-α IC50",~250 µM
same,MIC,E. coli,> 64 µg/mL
same,Mortality,"[1]; 10 mg/kg, separate study, saline control 38.9%",13%
same,Mortality,"[1]; T02: 10 mg/kg subcutaneous Day -1, M. haemolytica challenge Day 0, 6 animals",1/6
same,Mortality,"[1]; T04: 10 mg/kg subcutaneous Day -1, No challenge, 6 animals",0/6
same,"Significance at .20 level to T01, lung lesions","[1]; Table 6 study, T04: 10 mg/kg subcutaneous",Yes
same,"Mortality/Euthanization Yes, %",[1]; [4],12.5%
same,"Mortality/Euthanization Yes, Number",[1]; [4],3
same,"Mortality/Euthanization No, %",[1]; [4],87.5%
same,"Mortality/Euthanization No, Number",[1]; [4],21
same,"Significance to T01, mortality",[1]; [4],Yes
same,"Significance at .20 level to T01, lung lesions","[1]; Table 8 study, T05: 10 mg/kg subcutaneous",yes
same,"Mortality/Euthanization Yes, %",[1]; [5],13.0%
same,"Mortality/Euthanization Yes, Number",[1]; [5],3
same,"Mortality/Euthanization No, %",[1]; [5],87.0%
same,"Mortality/Euthanization No, Number",[1]; [5],20
same,"Significance to T01, mortality",[1]; [5],Yes
same,IC50,IL-6,> 250 µM
same,maximum plasma concentration,[2],5 µg/mL
same,Percent failure (treatment failure),[3]; 5 mg/kg (T02),19.3%
same,Percent failure (treatment failure),[3]; 10 mg/kg (T03),8.8%
